The NIST ThermoML archive (doi:10.1021/je200851a)

Experiment: excess molar enthalpy (molar enthalpy of mixing); xn = mol fraction of the nth substance listed
Conditions: 298.15 K, 101 kPa, Liquid, Calvet calorimetry

CCCCCCCCC [nonane] + CCO
Conditions	excess molar enthalpy [kcal/mol]
x2 = 0.0507	0.087
x2 = 0.1378	0.132
x2 = 0.2453	0.156
x2 = 0.4164	0.168
x2 = 0.5022	0.162
x2 = 0.586	0.156
x2 = 0.6518	0.151
x2 = 0.6895	0.143
x2 = 0.749	0.13
x2 = 0.7877	0.12
x2 = 0.8433	0.1
x2 = 0.8715	0.0899
x2 = 0.9065	0.0715
x2 = 0.9296	0.0574
x2 = 0.9562	0.0387
